The subject of assay [1] is Clostridium difficile ATCC 43255. Put plainly: Susceptibility of Clostridium difficile, agar dilution MIC. Type of assay: cell-based. The settings on record: Clostridioides difficile, ATCC43255, anaerobic. The essentials: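 Agar dilution per CLSI M11-A8 on supplemented Brucella agar containing compound dilutions. Inoculum from 0.5 McFarland suspension, 1-2 μL spots; anaerobic incubation at 36° C for 42 to 48 hours. MIC read by eye as the concentration giving marked growth reduction versus compound-free anaerobic control plates.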

Another assay has as its system Staphylococcus aureus. Put plainly: Neutropenic mouse thigh or calf muscle infection model. Type of assay: in vivo. The following applies: neutropenic mice, compared with linezolid. The text has this: After culture in broth medium (i) suitable diluent of a bacterial suspension of the Staphylococcus aureus strain, or (ii) equivalent mixture of suitable diluent of a bacterial suspension of the Enterococcus faecium strain and a 10% mucin suspension were used as the inoculum. The bacterial suspension was inoculated under anesthesia with a ketamine-xylazine mixture into the thigh or calf muscle of Swiss albino mice or ICR mice (4- to 6-week-old) compromised by the cyclophosphamide administration. The drug was administered to the mice 1 to 8 times at an interval of 3 to 24 hours. The number of bacteria in the thigh or calf muscle was counted for the non-treated group immediately before initial administration of the drug (pre-control), for the non-treated group (post-control) and for the drug-administered group on the next day of administration of the drug and infection. A change in the number of bacteria in the thigh or calf muscle was used as an index of therapeutic effect.

Assay [2] concerns Clostridium difficile 2009155, a NAP1/027 strain. Put plainly: Hamster CDI model. Type of assay: in vivo. The settings on record: 0.3 mg/kg/day by oral route, 5 days. How it is done: The in vivo efficacy of test compounds were evaluated in a hamster CDI model caused by Clostridium difficile 2009155, a NAP1/027 strain. Syrine hamsters (6-8-weeks old) were primed with a single subcutaneous injection of clindamycin (30 mg/kg) 1-5 days prior to infection. Hamsters were infected by oral gavage with 1 ml of spore suspension ([…]) prepared in PBS. The drug was administered to the hamsters 6 hours post infection by oral or subcutaneous route at an interval of 24 hours for 5 days. The death and survival of the non-treated group and the drug-administered group were recorded once daily for 35 days.

The subject of a further assay is P. acnes IHMA 775486. Put plainly: Susceptibility of P. acnes, agar dilution MIC. Format: cell-based. The following applies: Cutibacterium acnes, IHMA775486, anaerobic. As for the experimental part:
(§1) The antibacterial activity of the compounds of the present invention against P. acnes clinical isolates was tested by the agar dilution method. The assay was carried out according to the CLSI guidelines document (Clinical and Laboratory Standards Institute, 2012 & 2016). The test strains were spread on supplemented Brucella agar (SBA) plates and grown for 42 to 48 hours at 36° C. under anaerobic condition. The test compound dilutions were prepared with Brucella broth and SBA plates containing dilution of test compound were prepared. As an anaerobic growth control and to check the aerobic contamination, plates not containing the test compound were also prepared. Colonies grown on plates were suspended with Brucella broth to adjust the turbidity to 0.5 McFarland using a densitometer. Suspension (1-2 μL) of the test strains was inoculated onto each agar surface by using a bacterial suspension inoculation apparatus (multipoint inoculator). After anaerobic incubation for 42 to 48 hours at 36° C., absence and presence of growth of each strain on growth control plates and test compounds plate were examined with unaided eye. The MIC was determined at which a marked reduction occurs in the appearance of growth on the test plate as compared to that of growth on the anaerobic control plates.

A further assay relates to P. acnes ATCC 6523. Put plainly: Susceptibility of P. acnes, agar dilution MIC. Type of assay: cell-based. The following applies: Cutibacterium acnes, ATCC6523, anaerobic. As for the experimental part:
as §1

The next assay concerns P. acnes ATCC 6921. Put plainly: Susceptibility of P. acnes, agar dilution MIC. The settings on record: Cutibacterium acnes, ATCC6921, anaerobic. Format: cell-based. How it is done:
as §1

The subject of a further assay is P. acnes IHMA 103740. Put plainly: Susceptibility of P. acnes, agar dilution MIC. Type of assay: cell-based. The settings on record: Cutibacterium acnes, IHMA103740, anaerobic. How it is done: as §1
The subject of assay [3] is N. gonorrhoeae clinical isolates. Put plainly: Susceptibility of N. gonorrhoeae, agar dilution MIC. Type of assay: cell-based. How it is done:
The antibacterial activity of the compounds of the present invention against N. gonorrhoeae clinical isolates was tested by the agar dilution method [Clinical and Laboratory Standards Institute, 2016]. The test strains were spread on chocolate agar plates and grown for 20-24 h at 36° C. in 5% carbon dioxide. The test compound dilutions were prepared with broth and agar MIC plates were prepared using GC agar base supplemented with haemoglobin and 1% IsoVitaleX plates. As growth control plates not containing the test compound were also prepared. Colonies grown on plates were suspended with broth to adjust the turbidity to 0.5 McFarland using a densitometer. Suspension (1-2 μL) of the test strains was inoculated onto each agar surface by using a bacterial suspension inoculation apparatus (multipoint inoculator). After aerobic incubation for 20-24 h at 36° C. in 5% carbon dioxide, absence and presence of growth of each strain on growth control plates and test compounds plate were examined with unaided eye. The MIC was determined at which a marked reduction occurs in the appearance of growth on the test plate as compared to that of growth on the aerobic control plates.

≈ marks a conversion by molar mass, not a printed value.

Turning to `CCc1[nH]c(C(=O)N[C@@H]2CCN(c3nnc([C@H](C)O)s3)C[C@@H]2OC)nc1Cl` (single isomer, unassigned) [Compound No. 5], inhibition of growth in assay [1] (MIC) required 0.125 µg/mL (≈ 0.301 µM). For the same compound, the “therapeutic effect against Staphylococcus aureus (number of bacteria in thigh or calf muscle)” value in the assay on Staphylococcus aureus was “equivalent to or higher than linezolid”. The “survival on day 35” value in assay [2] is on record as 100%.
`CCc1[nH]c(C(=O)N[C@@H]2CCN(c3nnc(C(C)(C)O)s3)C[C@@H]2OC)nc1Cl` [Compound No. 2, 4-Chloro-5-ethyl-N-{(3S,4R)-1-[5-(2-hydroxypropan-2-yl)-1,3,4-thiadiazol-2-yl]-3-methoxypiperidin-4-yl}-1H-imidazole-2-carboxamide]: the MIC against P. acnes IHMA 775486 is 0.125 µg/mL (≈ 0.291 µM); against P. acnes ATCC 6523 it was 0.125 µg/mL (≈ 0.291 µM); with P. acnes ATCC 6921, 0.125 µg/mL (≈ 0.291 µM); in the assay with P. acnes IHMA 103740 it was 0.125 µg/mL (≈ 0.291 µM); in assay [1] it was 0.06 µg/mL (≈ 0.14 µM); in assay [3] it was 0.25 µg/mL (≈ 0.583 µM). Moreover, the “therapeutic effect against Staphylococcus aureus (number of bacteria in thigh or calf muscle)” value in the assay on Staphylococcus aureus is “equivalent to or higher than linezolid”. Moreover, the “survival on day 35” value in assay [2] is given as 100%.

For the origin of these results see patent publication US10399968B2, “Hydroxyalkyl thiadiazole derivatives” (Daiichi Sankyo Company, Limited, priority 2015, dated 2019).
